In ChEMBL document CHEMBL1201862, “PubChem BioAssay data set” (2004):
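All cell lines were grown in 96-well plates and treated with compound for 48 hours. GI50 is the concentration that inhibits growth by half.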 Active and inactive are the calls of the source. Cut-off read from the data, not from the text of the source: active = GI50 up to about 1.1 µM and inactive = higher.

Columns and labels:
Assay in all cases: inhibition of tumour cell growth, NCI panel, 48 h
[1] = tested on: 786-0
[2] = tested on: A549
[3] = tested on: ACHN
[4] = tested on: CCRF-CEM
[5] = tested on: COLO 205
[6] = tested on: DLD-1
[7] = tested on: DMS-273
[8] = tested on: EKVX
[9] = tested on: HCC 2998
[10] = tested on: HCT-116
[11] = tested on: HCT-15
[12] = tested on: HL-60
[13] = tested on: HOP-62
[14] = tested on: HOP-92
[15] = tested on: HT-29
[16] = tested on: IGROV-1
[17] = tested on: K562
[18] = tested on: KM-20L2
[19] = tested on: KM12
[20] = tested on: LOX IMVI
[21] = tested on: LXFL 529
[22] = tested on: M14
[23] = tested on: M19-MEL
[24] = tested on: MOLT-4
[25] = tested on: Malme-3M
[26] = tested on: NCI-H226
[27] = tested on: NCI-H23
[28] = tested on: NCI-H460
[29] = tested on: NCI-H522
[30] = tested on: OVCAR-3
[31] = tested on: OVCAR-4
[32] = tested on: OVCAR-8
[33] = tested on: RXF 393
[34] = tested on: SF-268
[35] = tested on: SF-295
[36] = tested on: SF-539
[37] = tested on: SK-MEL-28
[38] = tested on: SK-MEL-2
[39] = tested on: SK-MEL-5
[40] = tested on: SK-OV-3
[41] = tested on: SN12C
[42] = tested on: SNB-19
[43] = tested on: SNB-75
[44] = tested on: SNB-78
[45] = tested on: SR
[46] = tested on: SW-620
[47] = tested on: TK-10
[48] = tested on: U-251
[49] = tested on: UACC-257
[50] = tested on: UACC-62
[51] = tested on: UO-31
[52] = tested on: XF498

With `Cc1nc2c(n1CC(C)C)C(=O)c1ccccc1C2=O` as the compound, how does the GI50 [1] read?
Its GI50 is 55.1 µM (inactive).

And the GI50 [2]?
The GI50 was 32.9 µM (inactive).

What about the GI50 [3] of the same compound?
Its GI50 is 32.1 µM (inactive).

What about the GI50 [4] of the same compound?
Its GI50 is 38.2 µM (inactive).

What about the GI50 [5] of the same compound?
Its GI50 is 36 µM (inactive).

And the GI50 [6]?
Its GI50 is 36.6 µM (inactive).

What about the GI50 [7] of the same compound?
The GI50 was 26.8 µM (inactive).

What about the GI50 [8] of the same compound?
Its GI50 is 38 µM (inactive).

And the GI50 [9]?
Its GI50 is 71.4 µM (inactive).

What about the GI50 [10] of the same compound?
The GI50 was 20.8 µM (inactive).

What about the GI50 [11] of the same compound?
Its GI50 is 37.5 µM.

And the GI50 [12]?
The GI50 was 23 µM (inactive).

What about the GI50 [13] of the same compound?
The GI50 was 42.1 µM (inactive).

And the GI50 [14]?
The GI50 was 10.4 µM (inactive).

What about the GI50 [15] of the same compound?
The GI50 was 34 µM (inactive).

What about the GI50 [16] of the same compound?
The GI50 was 32.6 µM (inactive).

What about the GI50 [17] of the same compound?
Its GI50 is 29.9 µM (inactive).

What about the GI50 [18] of the same compound?
The GI50 was 35.6 µM (inactive).

What about the GI50 [19] of the same compound?
Its GI50 is 37.9 µM (inactive).

And the GI50 [20]?
The GI50 was 29.3 µM (inactive).

What about the GI50 [21] of the same compound?
The GI50 was 42.6 µM (inactive).

What about the GI50 [22] of the same compound?
Its GI50 is 61.7 µM (inactive).

What about the GI50 [23] of the same compound?
The GI50 was 15.7 µM (inactive).

What about the GI50 [24] of the same compound?
The GI50 was 38.6 µM (inactive).

And the GI50 [25]?
Its GI50 is 20.6 µM (inactive).

And the GI50 [26]?
Its GI50 is > 100 µM (inactive).

And the GI50 [27]?
The GI50 was 18 µM (inactive).

What about the GI50 [28] of the same compound?
The GI50 was 23.4 µM (inactive).

And the GI50 [29]?
The GI50 was 26.5 µM (inactive).

What about the GI50 [30] of the same compound?
The GI50 was 25.4 µM (inactive).

What about the GI50 [31] of the same compound?
The GI50 was 43.4 µM (inactive).

What about the GI50 [32] of the same compound?
The GI50 was 35.5 µM (inactive).

And the GI50 [33]?
The GI50 was 35.2 µM (inactive).

And the GI50 [34]?
Its GI50 is 42.8 µM (inactive).

What about the GI50 [35] of the same compound?
The GI50 was 39.2 µM (inactive).

And the GI50 [36]?
The GI50 was 24.8 µM (inactive).

And the GI50 [37]?
The GI50 was 67.9 µM (inactive).

And the GI50 [38]?
Its GI50 is 25.5 µM (inactive).

And the GI50 [39]?
Its GI50 is 18.8 µM (inactive).

And the GI50 [40]?
The GI50 was 62.4 µM (inactive).

What about the GI50 [41] of the same compound?
Its GI50 is 37.1 µM (inactive).

What about the GI50 [42] of the same compound?
Its GI50 is 51.5 µM (inactive).

What about the GI50 [43] of the same compound?
Its GI50 is 42.8 µM (inactive).

And the GI50 [44]?
The GI50 was 61.9 µM (inactive).

And the GI50 [45]?
The GI50 was 41.6 µM (inactive).

And the GI50 [46]?
Its GI50 is 41.1 µM (inactive).

What about the GI50 [47] of the same compound?
The GI50 was > 100 µM (inactive).

What about the GI50 [48] of the same compound?
The GI50 was 38.6 µM (inactive).

And the GI50 [49]?
The GI50 was 17.7 µM (inactive).

And the GI50 [50]?
The GI50 was 20.7 µM (inactive).

And the GI50 [51]?
The GI50 was 26.5 µM (inactive).

And the GI50 [52]?
The GI50 was 33.3 µM (inactive).
